The results in this text go back to paper PMC4675551, “Protein Kinase C-Independent Inhibition of Organic Cation Transporter 1 Activity by the Bisindolylmaleimide Ro 31-8220” (PLoS ONE, 2015).

Holding throughout (format): cell-based
For experiment [1], the target named is T1, organic cation transporter 1 (OCT1) (Homo sapiens, UniProt O15245).
T1 construct: gene SLC22A1; NM_003057 overexpressed in HEK293 cells
T1 sequence (O15245 1-554): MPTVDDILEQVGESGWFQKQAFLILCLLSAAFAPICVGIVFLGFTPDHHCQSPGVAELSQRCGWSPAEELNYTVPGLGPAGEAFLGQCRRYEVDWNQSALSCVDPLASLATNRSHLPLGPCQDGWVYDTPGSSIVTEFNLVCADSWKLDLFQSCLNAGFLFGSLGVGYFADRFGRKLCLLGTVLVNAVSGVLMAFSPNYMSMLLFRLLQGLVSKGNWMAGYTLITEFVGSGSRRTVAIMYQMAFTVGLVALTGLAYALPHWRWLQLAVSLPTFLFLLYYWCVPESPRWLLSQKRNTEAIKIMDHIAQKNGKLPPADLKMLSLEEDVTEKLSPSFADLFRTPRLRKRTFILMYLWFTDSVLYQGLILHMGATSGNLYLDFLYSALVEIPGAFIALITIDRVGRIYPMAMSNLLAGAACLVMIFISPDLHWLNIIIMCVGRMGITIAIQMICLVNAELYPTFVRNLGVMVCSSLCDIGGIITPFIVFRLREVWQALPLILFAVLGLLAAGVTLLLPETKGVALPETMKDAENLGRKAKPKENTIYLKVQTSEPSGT
Nature of the experiment: inhibition of […]-TEA uptake in HEK-OCT1 cells, […], more than […] inhibition. The note with it: read-out: % inhibition at 5 μM.

Experiment [2] deals with T1, organic cation transporter 1 (OCT1). Nature of the experiment: cis-inhibition of […]-TEA uptake in HEK-OCT1 cells.
Experiment [3] addresses T2, organic cation transporter 2 (OCT2) (Homo sapiens, UniProt O15244).
T2 construct: gene SLC22A2; NM_003058 overexpressed in HEK293 cells
T2 sequence (O15244 1-555): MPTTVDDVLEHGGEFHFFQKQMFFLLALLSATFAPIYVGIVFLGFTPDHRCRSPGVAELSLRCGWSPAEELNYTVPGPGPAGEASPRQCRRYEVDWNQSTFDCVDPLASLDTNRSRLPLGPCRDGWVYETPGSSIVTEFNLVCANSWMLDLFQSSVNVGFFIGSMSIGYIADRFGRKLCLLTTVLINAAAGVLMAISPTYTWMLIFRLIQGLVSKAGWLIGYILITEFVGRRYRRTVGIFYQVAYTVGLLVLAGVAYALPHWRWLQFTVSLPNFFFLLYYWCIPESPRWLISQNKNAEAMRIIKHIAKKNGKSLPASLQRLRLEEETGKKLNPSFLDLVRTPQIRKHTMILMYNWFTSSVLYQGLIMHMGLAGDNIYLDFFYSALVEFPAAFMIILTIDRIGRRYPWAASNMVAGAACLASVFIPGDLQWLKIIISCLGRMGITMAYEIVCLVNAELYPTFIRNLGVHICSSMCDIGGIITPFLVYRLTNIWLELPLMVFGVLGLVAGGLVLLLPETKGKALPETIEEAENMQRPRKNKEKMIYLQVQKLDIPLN
Nature of the experiment: cis-stimulation of […]-TEA uptake in HEK-OCT2 cells.

For experiment [4], the target named is T3, multidrug and toxin extrusion protein 1 (MATE1) (Homo sapiens, UniProt Q96FL8).
T3 construct: gene SLC47A1; NM_018242 overexpressed in HEK293 cells
T3 sequence (Q96FL8 1-570): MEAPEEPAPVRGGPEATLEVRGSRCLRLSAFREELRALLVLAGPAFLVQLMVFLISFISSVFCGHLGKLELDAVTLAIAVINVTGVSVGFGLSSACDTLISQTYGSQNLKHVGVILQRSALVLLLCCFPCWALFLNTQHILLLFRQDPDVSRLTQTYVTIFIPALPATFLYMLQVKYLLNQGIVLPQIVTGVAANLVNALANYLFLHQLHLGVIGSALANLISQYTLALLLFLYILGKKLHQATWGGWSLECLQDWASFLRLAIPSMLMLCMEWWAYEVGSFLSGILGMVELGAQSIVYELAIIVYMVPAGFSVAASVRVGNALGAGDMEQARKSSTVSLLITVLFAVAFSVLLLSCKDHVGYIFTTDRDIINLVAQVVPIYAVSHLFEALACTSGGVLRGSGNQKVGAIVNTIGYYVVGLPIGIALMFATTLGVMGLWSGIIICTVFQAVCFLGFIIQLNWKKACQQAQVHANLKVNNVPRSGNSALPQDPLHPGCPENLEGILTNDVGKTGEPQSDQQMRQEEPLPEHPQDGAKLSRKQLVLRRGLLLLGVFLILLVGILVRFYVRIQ
The experiment is described as follows: inhibition of […]-TEA uptake in HEK-MATE1 cells.

A further experiment has as its target T4, MATE2-K (Homo sapiens, UniProt Q86VL8).
T4 construct: gene SLC47A2; NM_152908 overexpressed in HEK293 cells
Nature of the experiment: inhibition of […]-TEA uptake in HEK-MATE2-K cells.

For experiment [5], the target named is T1, organic cation transporter 1 (OCT1). Nature of the experiment: inhibition of TEA and DAPI uptake in HEK-OCT1 cells at […].

T4 sequence (Q86VL8 1-566 isoform Q86VL8-3): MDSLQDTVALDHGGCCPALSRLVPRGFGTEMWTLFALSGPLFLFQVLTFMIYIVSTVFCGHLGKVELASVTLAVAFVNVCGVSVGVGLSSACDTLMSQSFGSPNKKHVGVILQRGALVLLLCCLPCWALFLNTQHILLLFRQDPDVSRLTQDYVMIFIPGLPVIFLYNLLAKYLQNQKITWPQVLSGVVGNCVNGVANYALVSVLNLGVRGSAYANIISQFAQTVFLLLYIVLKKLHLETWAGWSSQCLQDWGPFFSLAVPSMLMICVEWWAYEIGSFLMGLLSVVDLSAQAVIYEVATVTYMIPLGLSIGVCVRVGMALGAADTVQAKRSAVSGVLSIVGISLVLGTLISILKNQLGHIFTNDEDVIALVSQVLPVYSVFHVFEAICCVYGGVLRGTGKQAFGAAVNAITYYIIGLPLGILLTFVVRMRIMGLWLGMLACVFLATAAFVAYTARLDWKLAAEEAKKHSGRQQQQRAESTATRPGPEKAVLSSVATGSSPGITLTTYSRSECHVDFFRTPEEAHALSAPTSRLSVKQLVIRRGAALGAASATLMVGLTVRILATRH

As usually defined, the inhibition is the share of the control response that was lost under treatment. As to `NCCCn1cc(C2=C(c3c[nH]c4ccccc34)C(=O)NC2=O)c2ccccc21` [BIM-III], in experiment [1], the inhibition at 5 µM was over 50%. Consider `CN1CCCC1CCn1cc(C2=C(c3c[nH]c4ccccc34)C(=O)NC2=O)c2ccccc21` (stereo not shown) [BIM-II], for which, in experiment [1], the inhibition at 5 µM was over 50%. In general, IC50 refers to the concentration needed to halve the response being measured. Low values mean inhibition by little substance, high ones a need for much substance. As usually defined, the EC50 is the concentration giving half of the maximal effect. Low values mean an effect from little substance, high ones a need for much substance. In the case of `Cn1cc(C2=C(c3cn(CCCSC(=N)N)c4ccccc34)C(=O)NC2=O)c2ccccc21` [BIM-IX, Ro 31–8220], the 50% inhibitory concentration (IC50) came to 180 ± 50 nM in experiment [2], 39 ± 6 nM in experiment [4] and 190 ± 70 nM against MATE2-K. The compound further gave a concentration giving a half-maximal response (EC50) in experiment [3] of 400 ± 10 nM. As for `CN(C)CCCn1cc(C2=C(c3c[nH]c4ccccc34)C(=O)NC2=O)c2ccccc21` [BIM-I], in experiment [1], the inhibition at 5 µM is over 50%. Regarding `Cn1cc(C2=C(c3cn(CCCN)c4ccccc34)C(=O)NC2=O)c2ccccc21` [BIM-VIII], the inhibition at 5 µM in experiment [1] is over 50%. Still for that read-out and setting: with `CN(C)C[C@@H]1CCn2cc(c3ccccc32)C2=C(C(=O)NC2=O)c2cn(c3ccccc23)CCO1` [LY 333531] the figure was over 50%. In the case of `COc1ccc(CCN(C)CCCC(C#N)(c2ccc(OC)c(OC)c2)C(C)C)cc1OC` (stereo not shown) [verapamil], in experiment [5], the “inhibition of TEA and DAPI uptake in HEK-OCT1 cells at 50 μM” value was “the reference OCT1 inhibitor verapamil similarly inhibited DAPI uptake”.
